Results from patent publication US8859466B2, “Oxaspirocyclic spiro-substituted tetramic acid and tetronic acid derivatives” (Bayer CropScience AG, priority 2007, dated 2014).

assay: Determination of the logP values by HPLC on a reverse-phase column (C 18); format: physicochemical; settings: HPLC on a reverse-phase column (C 18); separated α/β isomers
Description: Determination of the logP Values
The logP values given in the table were determined in accordance with EEC Directive 79/831 Annex V.A8 by HPLC (high performance liquid chromatography) on a reverse-phase column (C 18). Temperature: 55° C.
Mobile phases for the determination in the acidic range (pH 3.4):
Mobile phase A: acetonitrile+1 ml of formic acid/liter. Mobile phase B: water+0.9 ml of formic acid/liter.
Gradient: from 10% mobile phase A/90% mobile phase B to 95% mobile phase A/5% mobile phase B over 4.25 min.
Calibration was carried out using unbranched alkan-2-ones (having 3 to 16 carbon atoms) with known logP values (determination of the logP values by the retention times using linear interpolation between two successive alkanones). The lambda max values were determined in the maxima of the chromatographic signals using the UV spectra from 200 nm to 400 nm.

Row | SMILES | log P*
1 | Cc1ccc(-c2ccc(Cl)cc2)cc1C1=C(O)C2(CCC3(CCCO3)CC2)OC1=O (stereo not shown) [Example I-2-a-25] | 3.87
2 | CCc1cc(C)cc(C)c1C1=C(O)C2(CCC3(CCCO3)CC2)OC1=O (single isomer, unassigned) [Example I-2-a-15] | 3.21
3 | Cc1ccc(-c2ccc(F)cc2)cc1C1=C(O)C2(CCC3(CCCO3)CC2)OC1=O (stereo not shown) [Example I-2-a-23] | 3.5
4 | CCc1cc(Br)cc(C)c1C1=C(O)C2(CCC3(CCCO3)CC2)OC1=O (single isomer, unassigned) [Example I-2-a-6] | 3.44
5 | CCc1cc(Cl)cc(C)c1C1=C(O)C2(CCC3(CCCO3)CC2)OC1=O (single isomer, unassigned) [Example I-2-a-44] | 2.82
6 | CCc1cc(Br)cc(C)c1C1=C(O)C2(CCC3(CCCO3)CC2)OC1=O (single isomer, unassigned) [Example I-2-a-29] | 3.22
7 | Cc1cc(C)c(-c2ccc(Cl)cc2)c(C)c1C1=C(O)C2(CCC3(CCCO3)CC2)OC1=O (single isomer, unassigned) [Example I-2-a-43] | 4.32
8 | COc1cc(C)cc(C)c1C1=C(O)C2(CCC3(CCCO3)CC2)OC1=O (single isomer, unassigned) [Example I-2-a-11] | 2.66
9 | CCc1cc(Br)cc(Cl)c1C1=C(O)C2(CCC3(CCCO3)CC2)OC1=O (single isomer, unassigned) [Example I-2-a-36] | 2.77
10 | Cc1cc(C)c(C2=C(O)C3(CCC4(CCCO4)CC3)OC2=O)c(C)c1 (single isomer, unassigned) [Example I-2-a-5] | 3.00
11 | O=C1OC2(CCC3(CCCO3)CC2)C(O)=C1c1cc(-c2ccc(F)cc2)ccc1Cl (stereo not shown) [Example I-2-a-51] | 3.42
12 | CCc1cc(Cl)c(C2=C(O)C3(CCC4(CCCO4)CC3)OC2=O)c(Br)c1 (single isomer, unassigned) [Example I-2-a-39] | 3.26
13 | Cc1ccc(-c2ccc(F)cc2)cc1C1=C(O)C2(CCC3(CCCO3)CC2)OC1=O (stereo not shown) [Example I-2-a-22] | 3.0
14 | CCc1cc(C)cc(Br)c1C1=C(O)C2(CCC3(CCCO3)CC2)OC1=O (single isomer, unassigned) [Example I-2-a-28] | 2.73
15 | COc1cccc(C)c1C1=C(O)C2(CCC3(CCCO3)CC2)OC1=O (single isomer, unassigned) [Example I-2-a-34] | 2.05
16 | Cc1cc(C)c(C2=C(O)C3(CCC4(CCCO4)CC3)OC2=O)c(C)c1 (single isomer, unassigned) [Example I-2-a-4] | 2.52
17 | CCc1cc(Cl)cc(C)c1C1=C(O)C2(CCC3(CCCO3)CC2)OC1=O (single isomer, unassigned) [Example I-2-a-45] | 3.34
18 | Cc1ccc(-c2ccc(Cl)c(Cl)c2)cc1C1=C(O)C2(CCC3(CCCO3)CC2)OC1=O (stereo not shown) [Example I-2-a-13] | 4.24
19 | Cc1ccc(C)c(C2=C(O)C3(CCC4(CCCO4)CC3)OC2=O)c1 (single isomer, unassigned) [Example I-2-a-2] | 2.73

Row | SMILES | log P*
20 | Cc1ccc(C)c(C2=C(O)C3(CCC4(CCCO4)CC3)OC2=O)c1 (single isomer, unassigned) [Example I-2-a-3] | 2.29
21 | Cc1ccc(-c2ccc(Cl)cc2)cc1C1=C(O)C2(CCC3(CCCO3)CC2)OC1=O (stereo not shown) [Example I-2-a-24] | 3.32
22 | Cc1ccc(-c2ccc(Cl)c(Cl)c2)cc1C1=C(O)C2(CCC3(CCCO3)CC2)OC1=O (stereo not shown) [Example I-2-a-12] | 3.74
23 | Cc1cc(C)c(-c2ccc(Cl)cc2)c(C)c1C1=C(O)C2(CCC3(CCCO3)CC2)OC1=O (single isomer, unassigned) [Example I-2-a-42] | 3.79
24 | Cc1cc(C2=C(O)C3(CCC4(CCCO4)CC3)OC2=O)c(Cl)cc1Cl (single isomer, unassigned) [Example I-2-a-40] | 2.60
25 | COc1cccc(C)c1C1=C(O)C2(CCC3(CCCO3)CC2)OC1=O (single isomer, unassigned) [Example I-2-a-35] | 2.42
26 | CCc1cc(Br)cc(Cl)c1C1=C(O)C2(CCC3(CCCO3)CC2)OC1=O (single isomer, unassigned) [Example I-2-a-37] | 3.40
27 | Cc1cc(C)c(C2=C(O)C3(CCC4(CCCO4)CC3)OC2=O)c(Br)c1 (single isomer, unassigned) [Example I-2-a-33] | 2.95
28 | Cc1ccc(-c2ccc(F)cc2)c(C)c1C1=C(O)C2(CCC3(CCCO3)CC2)OC1=O (stereo not shown) [Example I-2-a-47] | 3.20
29 | O=C1OC2(CCC3(CCCO3)CC2)C(O)=C1c1cc(-c2ccc(Cl)cc2)ccc1Cl (stereo not shown) [Example I-2-a-21] | 3.79
30 | Cc1cc(C)c(C2=C(O)C3(CCC4(CCCO4)CC3)OC2=O)cc1C (single isomer, unassigned) [Example I-2-a-49] | 2.54
31 | O=C1OC2(CCC3(CCCO3)CC2)C(O)=C1c1cc(-c2ccc(F)cc2)ccc1Cl (stereo not shown) [Example I-2-a-50] | 2.91
32 | Cc1ccc(-c2ccc(Cl)cc2)c(C)c1C1=C(O)C2(CCC3(CCCO3)CC2)OC1=O (stereo not shown) [Example I-2-a-19] | 4.06
33 | Cc1cc(C2=C(O)C3(CCC4(CCCO4)CC3)OC2=O)c(Cl)cc1Cl (single isomer, unassigned) [Example I-2-a-41] | 3.14
34 | Cc1cc(C)c(-c2ccc(Cl)cc2)cc1C1=C(O)C2(CCC3(CCCO3)CC2)OC1=O (stereo not shown) [Example I-2-a-26] | 4.15
35 | Cc1cc(C)c(C2=C(O)C3(CCC4(CCCO4)CC3)OC2=O)c(Br)c1 (single isomer, unassigned) [Example I-2-a-32] | 2.48
36 | COc1cc(C)cc(C)c1C1=C(O)C2(CCC3(CCCO3)CC2)OC1=O (single isomer, unassigned) [Example I-2-a-10] | 2.28
37 | Cc1cc(C2=C(O)C3(CCC4(CCCO4)CC3)OC2=O)c(C)cc1Br (single isomer, unassigned) [Example I-2-a-31] | 2.77
38 | CCc1cc(Br)cc(C)c1C1=C(O)C2(CCC3(CCCO3)CC2)OC1=O (single isomer, unassigned) [Example I-2-a-7] | 2.94

same assay, conditions: HPLC, reverse-phase C 18, acidic range (pH 3.4), 55° C.

Row | SMILES | log P
39 | CCOC(=O)OC1=C(c2c(CC)cc(C)cc2CC)C(=O)OC12CCC1(CCCO1)CC2 (stereo not shown) [Example I-2-c-3] | 4.68
40 | CCOC(=O)OC1=C(c2c(CC)cc(C)cc2CC)C(=O)OC12CCC1(CCCO1)CC2 (stereo not shown) [Example I-2-c-4] | 5.28
41 | CCOC(=O)OC1=C(c2c(C)cc(C)cc2C)C(=O)OC12CCC1(CCCO1)CC2 (stereo not shown) [Example I-2-c-2] | 4.69

same assay, conditions: compounds of formula (I-2-b)

Row | SMILES | log P*
42 | CCc1cc(C)cc(CC)c1C1=C(OC(=O)C(C)(C)C)C2(CCC3(CCCO3)CC2)OC1=O (stereo not shown) [Example I-2-b-23] | 5.62
43 | Cc1cc(C)c(C2=C(OC(=O)C(C)C)C3(CCC4(CCCO4)CC3)OC2=O)c(C)c1 (stereo not shown) [Example I-2-b-8] | 5.12
44 | Cc1ccc(-c2ccc(F)cc2)cc1C1=C(OC(=O)C(C)C)C2(CCC3(CCCO3)CC2)OC1=O (stereo not shown) [Example I-2-b-10] | 5.38
45 | COc1cc(C)cc(C)c1C1=C(OC(=O)C(C)(C)C)C2(CCC3(CCCO3)CC2)OC1=O (stereo not shown) [Example I-2-b-21] | 4.50
46 | Cc1ccc(C)c(C2=C(OC(=O)C(C)C)C3(CCC4(CCCO4)CC3)OC2=O)c1 (stereo not shown) [Example I-2-b-6] | 4.78
47 | COc1cc(C)cc(C)c1C1=C(OC(=O)C(C)C)C2(CCC3(CCCO3)CC2)OC1=O (stereo not shown) [Example I-2-b-2] | 4.60
48 | Cc1cc(C)c(-c2ccc(Cl)cc2)cc1C1=C(OC(=O)C(C)C)C2(CCC3(CCCO3)CC2)OC1=O (stereo not shown) [Example I-2-b-4] | 6.24
49 | CCc1cc(C)cc(CC)c1C1=C(OC(=O)C(C)C)C2(CCC3(CCCO3)CC2)OC1=O (stereo not shown) [Example I-2-b-22] | 5.17
50 | Cc1cc(C)c(-c2ccc(Cl)cc2)cc1C1=C(OC(=O)C(C)C)C2(CCC3(CCCO3)CC2)OC1=O (stereo not shown) [Example I-2-b-3] | 5.64
51 | Cc1ccc(-c2ccc(Cl)cc2)cc1C1=C(OC(=O)C(C)C)C2(CCC3(CCCO3)CC2)OC1=O (stereo not shown) [1-2-b-11] | 5.86
52 | Cc1ccc(-c2ccc(F)cc2)cc1C1=C(OC(=O)C(C)C)C2(CCC3(CCCO3)CC2)OC1=O (stereo not shown) [Example I-2-b-9] | 4.83
53 | COc1cccc(C)c1C1=C(OC(=O)C(C)(C)C)C2(CCC3(CCCO3)CC2)OC1=O (stereo not shown) [Example I-2-b-19] | 4.16
54 | CCc1cc(C)cc(CC)c1C1=C(OC(=O)C(C)C)C2(CCC3(CCCO3)CC2)OC1=O (stereo not shown) [Example I-2-b-24] | 5.79
55 | COc1cccc(C)c1C1=C(OC(=O)C(C)C)C2(CCC3(CCCO3)CC2)OC1=O (stereo not shown) [Example I-2-b-18] | 3.75
56 | Cc1ccc(-c2ccc(Cl)cc2)c(C)c1C1=C(OC(=O)C(C)C)C2(CCC3(CCCO3)CC2)OC1=O (stereo not shown) [Example I-2-b-15] | 5.63
57 | Cc1ccc(-c2ccc(Cl)cc2)cc1C1=C(OC(=O)C(C)C)C2(CCC3(CCCO3)CC2)OC1=O (stereo not shown) [Example I-2-b-13] | 5.29
58 | CCc1cc(C)cc(CC)c1C1=C(OC(=O)C(C)(C)C)C2(CCC3(CCCO3)CC2)OC1=O (stereo not shown) [Example I-2-b-25] | 6.25
59 | Cc1ccc(C)c(C2=C(OC(=O)C(C)C)C3(CCC4(CCCO4)CC3)OC2=O)c1 (stereo not shown) [Example I-2-b-5] | 4.22
60 | COc1cccc(C)c1C1=C(OC(=O)C(C)C)C2(CCC3(CCCO3)CC2)OC1=O (stereo not shown) [Example I-2-b-20] | 4.25

same assay, conditions: reverse-phase HPLC column (C 18); HPLC, reverse-phase C 18, acidic range (pH 3.4), 55° C.; read-out: log P

Row | SMILES | chromatographic logP
61 | COc1cc(C)cc(C)c1C1=C(OC(=O)C(C)C)[C@]2(CC[C@@]3(CCCO3)CC2)OC1=O [Example I-2-b-1] | 4.12
